The values below come from publication PMC8918352, “Structure and activity of the DHNA Coenzyme-A Thioesterase from Staphylococcus aureus providing insights for innovative drug development” (Scientific Reports, 2022).

Experiment [1] deals with SaDHNA WT (DHNA Coenzyme-A thioesterase). Kind of experiment: Thioesterase activity of SaDHNA wild type (DTNB/TNB, 412 nm). The class given is biochemical, Staphylococcus aureus. The protocol: (§1) To obtain some initial information about SaDHNA thioesterase substrate specificity, two different substrates classified according to their CoA chain length and unsaturation degree were assessed. The longest acyl-CoA chain substrate contained eighteen acyl saturated chain stearoyl-CoA (C18:0), while the shortest chain contained four acyl chain crotonyl-CoA with one unsaturation (C4:1). Thioesterase activity was observed by the increase in free thiol-CoA thioester hydrolysis formation of the 2-nitro-5-thiobenzoate anion (TNB^2−), resulting from the reaction of the thiolate anion (RS^−) with Ellman’s reagent (DTNB^2−) and one mixed disulphide (R-S-TNB^−). […]
(§2) The thioesterase activity of SaDHNA was measured according to a protocol of Rodríguez-Guilbe and co-workers[36]. In a ELISA microplate the formation of 2-nitro-5-thiobenzoate anion (TNB2-) by the reaction of thiolate anion (RS^−) with Ellman′s reagent (DTNB^2−) and one mixed disulphide (R-S-TNB^−) catalysed by purified SaDHNA wild type (WT), D16A and E31N was followed by monitoring the change in absorbance of thionitrobenzoic acid (TNB) at 412 nm (extinction coefficient of 13.600 M^−1 cm^−1) using a TECAN GENios plate reader (XFLUOR4 Version: V 4.40, MTX Lab Systems, Inc, USA). […] In addition, uncatalyzed reaction rates were monitored by the combination of same reagents without the enzyme. […]

The subject of the next experiment is SaDHNA thioesterase. Kind of experiment: Inhibition of SaDHNA thioesterase activity by peptides. The class given is biochemical, Staphylococcus aureus. To be noted: 100 µM peptide, 10 µM SaDHNA, 50 mM HEPES-K+ pH 7.5, 1 mM DTNB, room temperature, 412 nm; in comparison to control assay without peptides; triplicates. The source says: According to the docking analysis, the protein-peptide complex is mediated mainly through six hydrogen bonds formed between Pep-1 and residues present in the putative active site. The benzoyl ring of the tyrosine of Pep-1 has non-covalent π-stacking interactions with the Try45 benzoyl ring of the SaDHNA structure, as well as with the side chain of Ser55 through a hydrogen bond. The residues important for the substrate binding and activity, Glu31 and Asp16, respectively, are predicted to interact with the amide of the peptide backbone and with the side chain of serine of the peptide via hydrogen bonds as well. […]
The thioesterase activity of SaDHNA was measured according to a protocol of Rodríguez-Guilbe and co-workers[36]. In a ELISA microplate the formation of 2-nitro-5-thiobenzoate anion (TNB2-) by the reaction of thiolate anion (RS^−) with Ellman′s reagent (DTNB^2−) and one mixed disulphide (R-S-TNB^−) catalysed by purified SaDHNA wild type (WT), D16A and E31N was followed by monitoring the change in absorbance of thionitrobenzoic acid (TNB) at 412 nm (extinction coefficient of 13.600 M^−1 cm^−1) using a TECAN GENios plate reader (XFLUOR4 Version: V 4.40, MTX Lab Systems, Inc, USA). […] In addition, uncatalyzed reaction rates were monitored by the combination of same reagents without the enzyme.

The subject of a further experiment is SaDHNA. Description: Intrinsic (tryptophan) fluorescence quenching of SaDHNA by peptides, Stern–Volmer analysis. Particulars: for bimolecular quenching constant (Kq) / shift of SaDHNA emission spectra maximum / fluorescence intensity of SaDHNA: 60 nM SaDHNA; for bimolecular quenching constant (Kq): 100 mM sodium phosphate pH 6.0, 150 mM NaCl, 22 °C, excitation 290 nm, emission 300–420 nm, peptide 60–1000 nM, from second, slower quenching step, five assays; for shift of SaDHNA emission spectra maximum / fluorescence intensity of SaDHNA: peptide up to 1000 nM, pH 6.0, 22 °C; for shift of SaDHNA emission spectra maximum: maximum emission near 340 nm; for quenching mechanism: from Kq above diffusive limit, complex association between SaDHNA and peptides. In kind it is binding, Staphylococcus aureus. The procedure: Fluorescence spectroscopy was employed to analyse the inhibition of SaDHNA by the aforementioned peptides. The intrinsic fluorescence quenching was assessed for a gradient concentration of Pep-1 and Pep-2. The emission spectra of SaDHNA in buffer only and SaDHNA quenched with different concentrations of Pep-1 and Pep-2 are shown in Fig. 5a,b, respectively. The amino acid sequence of SaDHNA has three tryptophan residues, W29, W79 and W129 and a corresponding maximum emission near 340 nm. […] According to the quenching theory this may indicate a decrease in the lifetime of the excited state, corresponding to an additional rate process that depopulates the excited state and/or the formation of a non-radioactive ground state between the fluorophore and the quencher resulting in a non-fluorescence emission[25],[26].
The Stern–Volmer theory explains the relationship between fluorescence intensity and the presence of a quencher. The data obtained with different concentrations of peptides were analysed independently of the quenching process. Thereby the bimolecular quenching constant (Kq) assigned to the efficiency of quenching and the binding or affinity constant (Ka) for the associated complex were calculated[27],[28]. […] To investigate the quenching process and to estimate Kq and Ka the data from the second and slower step were considered (Fig. 6b,c, respectively). To estimate the bimolecular quenching constant (Kq), the Stern–Volmer quenching constant (Ksv) was determined from the slopes of Io/I versus Q (quencher concentration) (Fig. 6b) and […], which corresponds approximately to the lifetime of a biomolecule fluorophore in the absence of a quenching agent. Therefore, Kq [M^−1 s^−1] for Pep-1 and Pep-2 were 13.3 × 10^12 ± 0.6 × 10^12 and 9.3 × 10^12 ± 1.8 × 10^12, respectively. According to the diffusion controlled quenching theory Kq values close to 1 × 10 ^10 M^−1 s^−1 are associated with a process involving dynamic quenchers, whereas values of Kq larger than the diffusive limit indicate binding interactions between the fluorophore and the quencher.
As the estimated Kq presented higher values than expected for dynamic quenching, we analysed the data applying static quenching theory to estimate the affinity constant Ka for the associated complex. The intercept of log ((Io-I)/I) versus log Q plot (Fig. 6c) is equal to the logarithm of Ka.. Thereby the intercept antilog calculation determines the Ka values for both peptides.
Fluorescence measurements were performed using a Cary eclipse fluorescence spectrophotometer coupled with a peltier temperature control (Agilent, USA). All assays were carried out in 1 mL cuvettes at 22 °C with excitation/emission slits at 20 nm each. The applied excitation wavelength was 290 nm and emission spectra were collected in the range of 300 up to 420 nm in increments of 1 nm. SaDHNA quenching experiments were performed with two peptides (Pep-1: YGSDGR and Pep-2: EGEYE, using a concentration range from 60 up to 1000 nM. SaDHNA at a concentration of 60 nM in 100 mM sodium phosphate buffer pH 6.0, 150 mM NaCl was applied and small volumes of the stock peptide solution were sequentially added to the cuvette for quenching analysis. Each SaDHNA-peptide assay was performed five times. As a control the fluorescence of all buffer and all peptide solutions were measured to correct the observed fluorescence accordingly. The quenching process was assessed by the Stern–Volmer theory.

Another experiment concerns HpYbgC. Particulars: in contrast to EcYbgC and HiYbgC; ref [38]; cited from earlier work. The text has this: In fact, we observed the presence of a long tunnel associated with the binding site of the acyl moiety of the substrate for HpYbgC, which is ...
The test system of a further experiment is SaDHNA D16A. Description: Thioesterase activity of SaDHNA D16A mutant (DTNB/TNB, 412 nm). The class given is biochemical, Staphylococcus aureus. The protocol: as §1, §2
For the next experiment, the system named is SaDHNA E31N. Description: Thioesterase activity of SaDHNA E31N mutant (DTNB/TNB, 412 nm). In kind it is biochemical, Staphylococcus aureus. To be noted: stearoyl-CoA as substrate, vs background level. The protocol: as §1, §2
Experiment [2] concerns the target 1,4-dihydroxy-2-naphthoyl coenzyme A thioesterase from S. aureus (S. aureus). Description: crystal structure; space group P2_(1), four molecules in the asymmetric unit; crystals from 100 mM HEPES-Na+ pH 7.0, 1.0 M lithium sulphate, 293 K; 1.3 Å.
Experiment [3] has the same target. Kind of experiment: DLS + SAXS; SaDHNA at 0.8 to 2.5 mg/ml in 100 mM sodium phosphate buffer pH 6.0, 150 mM NaCl, 10 °C; ab initio model with GASBOR.
The target is the same in experiment [4]. Kind of experiment: other fluorescence titration; quenching of the intrinsic tryptophan fluorescence of 60 nM SaDHNA by peptide added from 60 up to 1000 nM; 100 mM sodium phosphate buffer pH 6.0, 150 mM NaCl, 22 °C; excitation 290 nm; Stern-Volmer and static quenching analysis of the second, slower quenching step.

For `C/C=C/C(=O)SCCNC(=O)CCNC(=O)[C@H](O)C(C)(C)COP(=O)(O)OP(=O)(O)OC[C@H]1O[C@@H](n2cnc3c(N)ncnc32)[C@H](O)[C@@H]1OP(=O)(O)O` [Crotonyl-CoA (C4:1), crotonyl-CoA], the “Enzymatic activity (specific activity)” value in experiment [1] (10 μM enzyme, 50 mM HEPES-K+ pH 7.5, 1 mM DTNB, room temperature, 200 μl, absorbance 412 nm, 100 μM stearoyl-CoA or 1 mM crotonyl-CoA as substrate, triplicates) was 0.27 ± 0.002 nmol TNB/min/mg protein.
For YGSDGR [Pep-1], in the experiment with SaDHNA thioesterase, the “SaDHNA thioesterase activity in presence of peptide (in words)” value is on record as “no detectable activity”. Moreover, in the experiment on SaDHNA, the “bimolecular quenching constant (Kq)” value was found to be 1.33e+13 ± 6e+11 M⁻¹ s⁻¹, the “shift of SaDHNA emission spectra maximum” value is listed as “did not shift the emission spectra maximum”, the “fluorescence intensity of SaDHNA” value is reported as “decrease in the fluorescence intensity” and the quenching mechanism result was “static mechanism”. Moreover, the “higher binding affinity to SaDHNA than Pep-2” value in the experiment on SaDHNA (ratio of Ka, Pep-1 vs Pep-2) came out at 21 fold.
Turning to `CCCCCCCCCCCCCCCCCC(=O)SCCNC(=O)CCNC(=O)[C@H](O)C(C)(C)COP(=O)(O)OP(=O)(O)OC[C@H]1O[C@@H](n2cnc3c(N)ncnc32)[C@H](O)[C@@H]1OP(=O)(O)O` [Stearoyl-CoA (C18:0), stearoyl-CoA], in the experiment with HpYbgC, the “activity of HpYbgC towards long acyl chains” value was “more active”. The “Enzymatic activity (specific activity)” value in the experiment on SaDHNA D16A (D16A mutant, 10 μM enzyme, 50 mM HEPES-K+ pH 7.5, 1 mM DTNB, room temperature, 412 nm, 100 μM stearoyl-CoA, triplicates) is recorded as 0.43 ± 0.02 nmol TNB/min/mg protein. Further, in the experiment with SaDHNA D16A (D16A vs WT, stearoyl-CoA as substrate), the “decrease of hydrolysis rate of stearoyl-CoA by the D16A mutant” value stood at 300 fold. The “activity of E31N mutant toward stearoyl-CoA (in words)” value with SaDHNA E31N was “no activity was detected above the background level”. Moreover, in experiment [1] (stearoyl-CoA vs crotonyl-CoA), the “higher specific activity toward the extended acyl CoA chain in comparison to the short chain crotonyl-CoA” value is 474 fold.
The term stoichiometry N denotes a count of units in the complex or per binding partner. Turning to “1,4-dihydroxy-2-naphthoyl coenzyme A thioesterase from S. aureus”, the stoichiometry N in experiment [2] and in [3] was 4 throughout.
In the case of EGEYE [Pep-2], the “SaDHNA thioesterase activity in presence of peptide (in words)” value with SaDHNA thioesterase was “no detectable activity”. Further, in the experiment on SaDHNA, the “bimolecular quenching constant (Kq)” value amounted to 9.3e+12 ± 1.8e+12 M⁻¹ s⁻¹, the “shift of SaDHNA emission spectra maximum” value was “slight blue shift of the emission”, the “fluorescence intensity of SaDHNA” value is “decrease in the fluorescence intensity” and the quenching mechanism result was “static mechanism”.
In experiment [4], EGEYE [Pep-2] registered a Kq (bimolecular quenching constant) of 9.3e+12 M⁻¹ s⁻¹.
